Columns and labels:
[1] = (§1) In vivo inhibition of SFT de novo synthesis in adult C57BL/6 mouse kidney assessed as reduction in [13C] galactose incorporation into SFT at 3 mg/kg, po via gavage treated with compound for 1 hr prior to intraperitoneal injection of [13C] galactose measured after 5 hrs of compound administration relative to control; assay type: functional
[2] = target: T1, UDP-glucuronosyltransferase 2B17 (Homo sapiens, UniProt O75795); experiment: Inhibition of UGT2B17 (unknown origin); assay type: ADME
T1 sequence (O75795 whole entry): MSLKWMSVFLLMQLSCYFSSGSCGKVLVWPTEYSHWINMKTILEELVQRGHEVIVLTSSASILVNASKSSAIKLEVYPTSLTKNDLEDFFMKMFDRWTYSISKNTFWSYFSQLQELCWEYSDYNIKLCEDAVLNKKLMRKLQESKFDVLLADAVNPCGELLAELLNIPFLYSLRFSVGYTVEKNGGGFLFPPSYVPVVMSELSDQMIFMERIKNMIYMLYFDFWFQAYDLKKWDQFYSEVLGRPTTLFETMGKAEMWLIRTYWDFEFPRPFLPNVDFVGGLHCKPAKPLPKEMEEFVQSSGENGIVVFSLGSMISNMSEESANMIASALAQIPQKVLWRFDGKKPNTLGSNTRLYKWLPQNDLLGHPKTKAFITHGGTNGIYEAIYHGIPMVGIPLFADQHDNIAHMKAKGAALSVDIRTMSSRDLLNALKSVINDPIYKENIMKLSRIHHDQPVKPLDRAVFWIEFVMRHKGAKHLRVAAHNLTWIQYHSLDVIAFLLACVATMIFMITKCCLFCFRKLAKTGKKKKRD

[3] = (§2) In vivo inhibition of SFT de novo synthesis in po dosed adult C57BL/6 mouse kidney assessed as reduction in [13C] galactose incorporation into SFT treated with compound for 1 hr prior to intraperitoneal injection of [13C] galactose measured after 5 hrs of compound administration; assay type: functional
Mus musculus = experiment: as §2; assay type: functional
[4] = AUC (0 to last) in C57BL/6 mouse at 3 mg/kg, po; assay type: ADME, organism-based; design: time 0 - last, route oral, dose 3 mg/kg; conditions: in vivo
[5] = target: T2, UDP-glucuronosyltransferase 2B15 (Homo sapiens, UniProt P54855); experiment: Inhibition of UGT2B15 (unknown origin); assay type: ADME
T2 sequence (P54855 whole entry): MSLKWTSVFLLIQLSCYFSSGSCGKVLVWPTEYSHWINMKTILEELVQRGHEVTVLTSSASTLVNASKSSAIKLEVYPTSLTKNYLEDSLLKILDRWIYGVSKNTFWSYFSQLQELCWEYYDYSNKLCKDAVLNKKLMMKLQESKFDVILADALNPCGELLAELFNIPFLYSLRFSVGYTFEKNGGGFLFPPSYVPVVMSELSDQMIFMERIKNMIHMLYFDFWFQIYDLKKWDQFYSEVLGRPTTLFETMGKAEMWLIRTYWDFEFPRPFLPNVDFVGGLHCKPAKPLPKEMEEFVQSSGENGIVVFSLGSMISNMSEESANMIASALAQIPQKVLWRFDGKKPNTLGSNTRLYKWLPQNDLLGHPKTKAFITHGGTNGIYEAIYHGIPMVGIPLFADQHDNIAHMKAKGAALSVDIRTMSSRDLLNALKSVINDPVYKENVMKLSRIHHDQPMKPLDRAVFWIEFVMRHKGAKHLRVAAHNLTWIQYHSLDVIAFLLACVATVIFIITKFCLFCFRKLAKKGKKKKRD

[6] = Cmax in Sprague-Dawley rat at 3 mg/kg, po; assay type: ADME, organism-based; design: route oral, dose 3 mg/kg; conditions: in vivo
[7] = Drug uptake in C57BL/6 mouse brain at 3 mg/kg, iv measured at 5 mins; assay type: ADME, organism-based; conditions: read-out: Drug uptake
[8] = AUC (0 to last) in Sprague-Dawley rat at 3 mg/kg, po; assay type: ADME, organism-based; design: time 0 - last, route oral, dose 3 mg/kg; conditions: in vivo
[9] = (§3) In vivo inhibition of SFT de novo synthesis in PN14 to PN21 days C57BL/6 mouse brain assessed as reduction in [13C] galactose incorporation into SFT at 10 mg/kg, po bid for 2 days and single dose at day 3 treated 1 hr prior to intraperitoneal injection of [13C] galactose measured after 5 hrs of last dose relative to control; assay type: functional; conditions: C57BL/6, 72 h, time 3 day
[10] = as §3, with “3” for “10”; assay type: functional; conditions: C57BL/6, 72 h, time 3 day
[11] = Volume of distribution at steady state in C57BL/6 mouse at 1 mg/kg, iv; assay type: ADME, organism-based; conditions: in vivo, read-out: Vdss
[12] = Oral bioavailability in Sprague-Dawley rat at 3 mg/kg; assay type: ADME, organism-based; conditions: in vivo
[13] = Distribution coefficient, log D of the compound; assay type: physicochemical; conditions: octanol/water
[14] = Tmax in Beagle dog at 3 mg/kg, po; assay type: ADME, organism-based, Canis lupus familiaris; conditions: in vivo
[15] = as §1, with “of GalCer” for “of SFT”, “into GalCer” for “into SFT”, “at 30” for “at 3”; assay type: functional
[16] = In vivo inhibition of SFT de novo synthesis in po dosed PN14 to PN21 days C57BL/6 mouse brain assessed as reduction in [13C] galactose incorporation into SFT administered twice for 2 days and single dose at day 3 treated 1 hr prior to intraperitoneal injection of [13C] galactose measured after 5 hrs of last dose; assay type: functional; conditions: C57BL/6, 72 h, time 3 day
[17] = Ratio of drug concentration in brain to plasma in C57BL/6 mouse measured at 5 mins; assay type: ADME, organism-based; conditions: read-out: BPR
[18] = Intrinsic clearance in human liver microsomes; assay type: ADME, Microsome; conditions: read-out: CLH
[19] = as §1, with “of GalCer” for “of SFT”, “into GalCer” for “into SFT”, “at 0.3” for “at 3”; assay type: functional
[20] = as §3, with “GalCer” for “SFT”, “3” for “10”; assay type: functional; conditions: C57BL/6, 72 h, time 3 day
[21] = Thermodynamic solubility of the compound […] at pH 7.4; assay type: physicochemical; conditions: read-out: Therm_solubility
[22] = target: T3, UDP-glucuronosyltransferase 1A6 (Homo sapiens, UniProt P19224); experiment: Inhibition of UGT1A6 (unknown origin); assay type: ADME
T3 sequence (P19224 whole entry): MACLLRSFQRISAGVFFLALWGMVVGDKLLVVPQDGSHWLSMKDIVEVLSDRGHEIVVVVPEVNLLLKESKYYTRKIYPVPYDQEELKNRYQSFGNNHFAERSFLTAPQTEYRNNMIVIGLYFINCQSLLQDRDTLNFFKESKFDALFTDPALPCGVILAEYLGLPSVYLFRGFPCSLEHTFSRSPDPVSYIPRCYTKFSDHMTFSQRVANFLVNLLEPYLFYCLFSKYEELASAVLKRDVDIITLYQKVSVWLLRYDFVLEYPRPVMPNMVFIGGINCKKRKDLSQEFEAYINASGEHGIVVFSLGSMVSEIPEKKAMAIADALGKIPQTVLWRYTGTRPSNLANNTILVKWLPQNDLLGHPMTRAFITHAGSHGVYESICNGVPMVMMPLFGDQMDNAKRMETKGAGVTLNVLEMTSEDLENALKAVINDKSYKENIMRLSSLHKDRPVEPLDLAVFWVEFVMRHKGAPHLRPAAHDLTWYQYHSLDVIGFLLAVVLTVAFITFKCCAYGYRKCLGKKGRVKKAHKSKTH

Q: Which inhibition in vivo at 3 mg/kg [1] does the source give for `CNC(=O)c1csc2c(C(F)(F)F)cc(N3CCC(OC(=O)N[C@@H](C)COC(F)(F)F)CC3)nc12` here?
A: Its inhibition in vivo at 3 mg/kg is 85%.

Q: What about the IC50 [2] of the same compound?
A: The IC50 was > 10 µM.

Q: And the ED50 [3]?
A: The ED50 was 1 mg/kg.

Q: And the inhibition (Mus musculus)?
A: The inhibition was “Dose-dependent effect”.

Q: And the AUC(0-t) [4]?
A: The AUC(0-t) was 784 ng·h/mL.

Q: And the IC50 [5]?
A: The IC50 was > 10 µM.

Q: What about the Cmax [6] of the same compound?
A: The Cmax was 405 ng/mL.

Q: And the concentration at 5 min [7]?
A: Its concentration at 5 min is 2050 ng/mL.

Q: And the AUC(0-t) [8]?
A: Its AUC(0-t) is 3060 ng·h/mL.

Q: What about the inhibition in vivo at 10 mg/kg [9] of the same compound?
A: Its inhibition in vivo at 10 mg/kg is 97%.

Q: And the inhibition in vivo at 3 mg/kg [10]?
A: The inhibition in vivo at 3 mg/kg was 92%.

Q: What about the Vd [11] of the same compound?
A: Its Vd is 1.64 L/kg.

Q: And the bioavailability [12]?
A: Its bioavailability is 40%.

Q: What about the logD [13] of the same compound?
A: Its logD is 5.09.

Q: What about the Tmax [14] of the same compound?
A: The Tmax was 1.33 h.

Q: And the inhibition in vivo at 30 mg/kg [15]?
A: Its inhibition in vivo at 30 mg/kg is 90%.

Q: What about the ED50 [16] of the same compound?
A: Its ED50 is < 3 mg/kg.

Q: What about the Kp at 5 min [17] of the same compound?
A: The Kp at 5 min was 0.69.

Q: What about the microsomal CLint [18] of the same compound?
A: The microsomal CLint was 73 µL/min/mg.

Q: What about the inhibition in vivo at 0.3 mg/kg [19] of the same compound?
A: Its inhibition in vivo at 0.3 mg/kg is 19%.

Q: What about the inhibition in vivo at 3 mg/kg [20] of the same compound?
A: The inhibition in vivo at 3 mg/kg was 90%.

Q: And the solubility thermodynamic [21]?
A: The solubility thermodynamic was < 0.5 µM.

Q: And the IC50 [22]?
A: Its IC50 is > 10 µM.

Source: ChEMBL document CHEMBL4725449, “Brain Penetrable Inhibitors of Ceramide Galactosyltransferase for the Treatment of Lysosomal Storage Disorders” (ACS Med Chem Lett, 2020)
